Starred links: 1 amine or outer side, 2 acyl side, 3 side chain; linkers in the order of their positions; H or OH if unused. Non-standard residues stand in square brackets, D forms with d. Residues, ends and D or L forms follow the SMILES beside them. Groups on a side chain read outwards from the residue. *: point of attachment. C20 diacid = O=C(O)CCCCCCCCCCCCCCCCCCC(=O)*; γGlu = O=C(O)[C@H](CCC(=O)[*:2])N[*:1]; εLys = N[C@@H](CCCCN[*:1])C(=O)[*:2]; Trx = NC[C@H]1CC[C@H](C(=O)O)CC1; Aib = CC(C)(N)C(=O)O
How the values were obtained:
human glucagon receptor = human glucagon receptor (Homo sapiens, UniProt P47871); experiment: cell-based
Procedure: (§1) The in vitro functional potency is the measure of target receptor activation in a whole cell assay.
(§2) In vitro functional potency was determined by measuring the response of the target receptor in a reporter gene assay in individual cell lines. […] When the respective receptor is activated, it results in the production of cAMP, which in turn results in expression of the luciferase protein. When assay incubation is completed, luciferase substrate (luciferin) is added resulting in the enzymatic conversion of luciferin to oxyluciferin and producing bioluminescence. The luminescence is measured as the readout for the assay.
(§3) The cells lines used in these assays were BHK cells with BHKTS13 as a parent cell line. The cell lines were derived from a clone containing the CRE luciferase element and were established by further transfection with the respective receptor to obtain the relevant cell line.
(§4) The cells were cultured at 37° C. with 5% CO2 in Cell Culture Medium. They were aliquoted and stored in liquid nitrogen. The cells were kept in continuous culture and were seeded out the day before each assay.
(§5) GLP-1R and GcgR Cell Culture Medium consisted of DMEM medium with 10% FBS, 500 μg/mL G418, and 300 μg/mL hygromycin. GIPR Cell Culture Medium consisted of DMEM medium with 10% FBS, 400 μg/mL G418, and 300 μg/mL hygromycin. Assay Buffer consisted of DMEM w/o phenol red, 10 mM Hepes, 1×Glutamax, 1% ovalbumin, and 0.1% Pluronic F-68 with the addition of HSA at twice the final assay concentration.
(§6) • 1) Cells were plated at 5000 cells/well and incubated overnight in the assay plate. • 2) Cells were washed once in DPBS. • 3) Stocks of the test compounds and reference compounds in concentrations ranging from 100-300 μM were diluted 1:150 in Assay Buffer. Compounds were then diluted 1:10 in column 1 of a 96 deep well dilution plate and then carried across the row creating a 3.5 fold, 12 point dilution curve. • 4) Assay Buffer (50 μl aliquot) with or without HSA was added to each well in the assay plate. • 5) A 50 μl aliquot of compound or blank was transferred from the dilution plate to the assay plate containing the Assay Buffer with or without HSA. • 6) The assay plate was incubated for 3 h in a 5% CO2 incubator at 37° C. 7) The cells were washed once with DPBS. • 8) A 100 μl aliquot of DPBS was added to each well of the assay plate. • 9) A 100 μl aliquot of steadylite plus reagent (light sensitive) was added to each well of the assay plate. • 10) Each assay plate was covered with aluminum foil to protect it from light and shaken at 250 RPM for 30 min at room temperature. • 11) Each assay plate was read in a microtiter plate reader.
(§7) The data from the microtiter plate reader was first regressed in an Excel in order to calculate the x-axis, log scale concentrations based on the individual test compound's stock concentration and the dilutions of the assay. […] The software performs a non-linear regression (log(agonist) vs response). A minimum of two replicates was measured for each sample. The reported values are averages of the replicates.

mouse GIP receptor = target: T1, mouse GIP receptor (Mus musculus, UniProt Q0P543); experiment: cell-based
T1 sequence (Q0P543 19-460): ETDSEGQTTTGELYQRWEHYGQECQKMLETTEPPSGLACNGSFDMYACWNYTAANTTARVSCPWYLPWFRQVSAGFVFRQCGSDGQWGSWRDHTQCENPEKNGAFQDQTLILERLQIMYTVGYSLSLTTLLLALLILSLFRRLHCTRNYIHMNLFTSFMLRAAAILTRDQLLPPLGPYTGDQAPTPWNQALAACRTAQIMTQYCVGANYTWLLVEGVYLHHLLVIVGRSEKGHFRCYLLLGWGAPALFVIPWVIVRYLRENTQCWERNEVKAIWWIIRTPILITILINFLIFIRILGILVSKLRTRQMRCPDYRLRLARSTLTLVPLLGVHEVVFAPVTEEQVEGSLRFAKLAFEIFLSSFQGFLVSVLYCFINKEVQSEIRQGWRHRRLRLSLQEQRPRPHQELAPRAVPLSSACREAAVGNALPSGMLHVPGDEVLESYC
Procedure: as §1, §2, §3, §4, §5, §6, §7

human GLP-1 receptor = human GLP-1 receptor (Homo sapiens, UniProt P43220); experiment: cell-based; details: hGLP-1R
Procedure: as §1, §2, §3, §4, §5, §6, §7

mouse GLP-1 receptor = target: T2, mouse GLP-1 receptor (Mus musculus, UniProt O35659)
T2 sequence (O35659 22-463): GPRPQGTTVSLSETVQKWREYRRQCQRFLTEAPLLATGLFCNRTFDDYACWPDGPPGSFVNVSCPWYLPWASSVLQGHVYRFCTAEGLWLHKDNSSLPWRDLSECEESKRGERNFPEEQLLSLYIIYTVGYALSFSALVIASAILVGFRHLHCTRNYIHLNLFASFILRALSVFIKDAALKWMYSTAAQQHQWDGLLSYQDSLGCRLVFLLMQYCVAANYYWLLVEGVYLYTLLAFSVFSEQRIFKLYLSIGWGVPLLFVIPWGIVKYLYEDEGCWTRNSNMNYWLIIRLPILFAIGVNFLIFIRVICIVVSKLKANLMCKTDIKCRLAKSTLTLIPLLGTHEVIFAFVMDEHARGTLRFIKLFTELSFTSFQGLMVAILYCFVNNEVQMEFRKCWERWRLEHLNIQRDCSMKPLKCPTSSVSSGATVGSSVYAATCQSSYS
Procedure: as §1, §2, §3, §4, §5, §6, §7

human GLP-1 receptor, sequence (P43220 24-463): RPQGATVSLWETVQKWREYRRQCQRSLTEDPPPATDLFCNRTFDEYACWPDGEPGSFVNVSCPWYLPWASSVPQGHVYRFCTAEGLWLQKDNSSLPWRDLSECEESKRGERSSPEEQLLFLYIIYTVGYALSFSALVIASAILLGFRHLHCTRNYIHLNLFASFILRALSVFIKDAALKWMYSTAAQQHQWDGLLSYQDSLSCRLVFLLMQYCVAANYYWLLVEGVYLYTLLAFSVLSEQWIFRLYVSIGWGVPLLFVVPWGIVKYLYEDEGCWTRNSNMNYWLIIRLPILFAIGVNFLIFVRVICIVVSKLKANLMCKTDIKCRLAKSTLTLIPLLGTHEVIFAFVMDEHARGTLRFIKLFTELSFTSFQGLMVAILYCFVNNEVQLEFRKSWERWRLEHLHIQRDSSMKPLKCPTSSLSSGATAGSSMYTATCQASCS
human glucagon receptor, sequence (P47871 26-477): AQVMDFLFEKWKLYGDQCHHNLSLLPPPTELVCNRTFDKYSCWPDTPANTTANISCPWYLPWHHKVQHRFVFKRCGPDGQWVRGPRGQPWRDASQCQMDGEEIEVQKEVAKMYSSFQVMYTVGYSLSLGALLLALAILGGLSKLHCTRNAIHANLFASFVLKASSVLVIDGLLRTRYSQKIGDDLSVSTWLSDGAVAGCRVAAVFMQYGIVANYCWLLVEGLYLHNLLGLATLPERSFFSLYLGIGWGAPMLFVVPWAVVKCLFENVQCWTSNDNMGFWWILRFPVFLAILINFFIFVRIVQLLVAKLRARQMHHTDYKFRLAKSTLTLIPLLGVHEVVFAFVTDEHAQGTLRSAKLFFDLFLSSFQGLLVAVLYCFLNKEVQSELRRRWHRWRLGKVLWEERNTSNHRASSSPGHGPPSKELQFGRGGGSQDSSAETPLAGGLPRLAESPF

Compound	EC50 (human glucagon receptor)	EC50 (mouse GIP receptor)	EC50 (human GLP-1 receptor; CRE Luc 0% HSA EC50, 0% HSA)	EC50 (human GLP-1 receptor; CRE Luc 1% HSA EC50, 1% HSA)	EC50 (mouse GLP-1 receptor)
CC[C@H](C)[C@H](NC(=O)[C@H](CO)NC(=O)[C@H](Cc1ccc(O)cc1)NC(=O)[C@H](CC(=O)O)NC(=O)[C@H](CO)NC(=O)[C@@H](NC(=O)[C@H](Cc1ccccc1)NC(=O)[C@@H](NC(=O)CNC(=O)[C@H](CCC(=O)O)NC(=O)C(C)(C)NC(=O)[C@@H](N)Cc1ccc(O)cc1)[C@@H](C)O)[C@@H](C)O)C(=O)N[C@@H](Cc1ccc(O)cc1)C(=O)N[C@@H](CC(C)C)C(=O)N[C@@H](CCC(=O)O)C(=O)N[C@@H](CCCCN)C(=O)N[C@@H](CCCCNC(=O)[C@@H](N)CCCCNC(=O)[C@@H](N)CCCCNC(=O)CC[C@H](NC(=O)CCCCCCCCCCCCCCCCCCC(=O)O)C(=O)O)C(=O)N[C@@H](C)C(=O)N[C@@H](C)C(=O)NC(C)(C)C(=O)N[C@@H](CCC(=O)O)C(=O)N[C@@H](Cc1ccccc1)C(=O)N[C@H](C(=O)N[C@@H](CC(N)=O)C(=O)N[C@@H](Cc1c[nH]c2ccccc12)C(=O)N[C@@H](CC(C)C)C(=O)N[C@@H](CC(C)C)C(=O)N[C@@H](C)C(=O)NCC(=O)NCC(=O)N1CCC[C@H]1C(=O)N[C@@H](CO)C(=O)N[C@@H](CO)C(=O)NCC(=O)N[C@@H](C)C(=O)N1CCC[C@H]1C(=O)N1CCC[C@H]1C(=O)N1CCC[C@H]1C(=O)N[C@@H](CO)C(N)=O)C(C)C [Compound 31] (H-Y[Aib]EGTFTSDYSIYLEKK([εLys-εLys-γGlu-C20 diacid])AA[Aib]EFVNWLLAGGPSSGAPPPS-NH2; N-terminus assumed)	9.6 nM	0.0134 nM	0.0019 nM	0.0543 nM	0.0013 nM
CC[C@H](C)[C@H](NC(=O)[C@H](CO)NC(=O)[C@H](Cc1ccc(O)cc1)NC(=O)[C@H](CC(=O)O)NC(=O)[C@H](CO)NC(=O)[C@@H](NC(=O)[C@H](Cc1ccccc1)NC(=O)[C@@H](NC(=O)CNC(=O)[C@H](CCC(=O)O)NC(=O)C(C)(C)NC(=O)[C@@H](N)Cc1ccc(O)cc1)[C@@H](C)O)[C@@H](C)O)C(=O)N[C@@H](Cc1ccc(O)cc1)C(=O)N[C@@H](CC(C)C)C(=O)N[C@@H](CCC(=O)O)C(=O)N[C@@H](CCCCN)C(=O)N[C@@H](CCC(N)=O)C(=O)N[C@@H](C)C(=O)N[C@@H](C)C(=O)NC(C)(C)C(=O)N[C@@H](CCCCNC(=O)[C@@H](N)CCCCNC(=O)[C@@H](N)CCCCNC(=O)CC[C@H](NC(=O)[C@H]1CC[C@H](CNC(=O)CCCCCCCCCCCCCCCCCCC(=O)O)CC1)C(=O)O)C(=O)N[C@@H](Cc1ccccc1)C(=O)N[C@H](C(=O)N[C@@H](CCC(N)=O)C(=O)N[C@@H](Cc1c[nH]c2ccccc12)C(=O)N[C@@H](CC(C)C)C(=O)N[C@@H](CC(C)C)C(=O)N[C@@H](CCC(=O)O)C(=O)NCC(=O)NCC(=O)N1CCC[C@H]1C(=O)N[C@@H](CO)C(=O)N[C@@H](CO)C(=O)NCC(=O)N[C@@H](C)C(=O)N1CCC[C@H]1C(=O)N1CCC[C@H]1C(=O)N1CCC[C@H]1C(=O)N[C@@H](CO)C(N)=O)C(C)C [Compound 24] (H-Y[Aib]EGTFTSDYSIYLEKQAA[Aib]K([εLys-εLys-γGlu-Trx-C20 diacid])FVQWLLEGGPSSGAPPPS-NH2; N-terminus assumed)	> 10 nM	0.0405 nM	0.0047 nM	0.114 nM	0.0099 nM

Source: patent US20230346961A1, “GLP-1 AND GIP RECEPTOR CO-AGONISTS” (Novo Nordisk A/S, priority 2020, published 2023)
